The text below walks through data of patent US5262522A, “Receptor for oncostatin M and leukemia inhibitory factor” (Immunex Corporation, priority 1991, dated 1993).

This assay has as its system oncostatin M. Kind of assay: Oncostatin M binding assay (phthalate oil separation, Scatchard) on transfected COS-7 cells. Conditions: cells preincubated with non-radiolabeled LIF before 125I-oncostatin M (curve B). An excerpt:
Oncostatin M may be purified from cells in which the protein is naturally found, or from cells transformed with an expression vector encoding oncostatin M. One source of oncostatin M is phorbol ester-treated U937 cells, as described by Zarling et al., PNAS U.S.A. 83:9739 (1986). Purification of recombinant oncostatin M is described by Linsley et al., J. Biol. Chem. 264:4282-4289 (1989), which is hereby incorporated by reference in its entirety.
Oncostatin M may be radiolabeled using any suitable conventional procedure, such as the radioiodination procedure employed to radiolabel LIF in Example 1. The radio-iodination of oncostatin M has also been described by Linsley et al., supra.
The resulting radiolabeled oncostatin M may be substituted for radiolabeled LIF (using the same concentrations and other reaction parameters) in the assay procedures described in Example 1 in order to detect proteins and cells that bind oncostatin M. An assay for binding of ^125 I-oncostatin M to cells is also described in Linsley et al., supra.
COS-7 cells transfected with vector(s) encoding gp130 or LIF-R were assayed for the ability to bind oncostatin M. In separate transfections, COS-7 cells were transfected with the following combinations of vectors. […]

With “gp130 and LIF-R: receptor of gp130 and LIF-R co-expressed on COS-7 cells co-transfected with vectors B10G and pHLIFR-65”, the “binding of oncostatin M after preincubation with LIF” value is “did not bind oncostatin M in any measurable amount above that bound by the non-transfected COS-7 cells”.
